Reference: US20120053148A1, “INHIBITORS OF HEPATITIS C VIRUS” (GILEAD SCIENCES, INC., priority 2010, published 2012)
Where two headings read alike, the source gives them in different places.

Tested on: HCV Replicon IB
Assay: HCV replicon assay in Huh-7 cells, genotype 1b (Rluc luciferase readout)
Type: cell-based, hepatitis C virus
Conditions: Hepatitis C virus; for inhibition at 10 µM: 72 h, 1b-Rluc replicon, read-out: Inhibition @ 10 uM in 1b-Rluc; for EC50: Huh-7, 72 h, read-out: EC50_HCV1B_
[1] = HCV1B replicon, Huh-7 cells, 3 days

COc1cc(C(F)(F)F)c2nc(C(=O)NCc3ccccn3)cc(C)c2c1 [Compound 182]
inhibition at 10 µM (Huh-7 cells, 3 days): 99.3%

CO[C@@H]1CN[C@H](CNC(=O)c2cc(N)c3cc(C4CC4)cc(C(C)(C)C)c3n2)C1 [Compound 328]
EC50 [1]: 15.9 nM

Cc1cc(C(=O)NCC2CCCCN2)nc2c(C(F)(F)F)cc(C3CC3)cc12 (stereo not drawn) [Compound 108]
inhibition at 10 µM (Huh-7 cells, 3 days): 96.5%

Cc1cc(C(=O)NCCCN2CCOCC2)nc2c(C(F)(F)F)cc(C3CC3)cc12 [Compound 122]
inhibition at 10 µM (Huh-7 cells, 3 days): 97.2%

CCOP(=O)(CNc1nnc(-c2cc(C)c3cc(OCC(F)(F)F)cc(C(C)(C)C)c3n2)o1)OCC [Compound 460]
EC50: 388 nM

Cc1cc(C(=O)N/C=C/Cc2ccccc2)nc2c(C(F)(F)F)cc(-c3ccccc3)cc12 [Compound 171]
inhibition at 10 µM (Huh-7 cells, 3 days): 92.5%

Cc1cc(C(=O)NCC2CCCCC2)nc2c(C(F)(F)F)cc(-c3ccccc3)cc12 [Compound 172]
inhibition at 10 µM (Huh-7 cells, 3 days): 95.2%

Cc1cc(-c2nnc(NC[C@H]3C[C@H](O)C3)o2)nc2c(C(C)(C)C)cc(C3CC3)cc12 [Compound 418]
EC50 [1]: 4.58 nM

Cc1cc(C(=O)NCc2ccccn2)nc2c(OC(F)(F)F)cc(C3CC3)cc12 [Compound 234]
inhibition at 10 µM (Huh-7 cells, 3 days): 100%

Cc1cc(-c2nnc(N[C@H]3C[C@@H](O)C3)o2)nc2c(C(C)(C)C)cc(OCCF)cc12 [Compound 535]
EC50 [1]: 2.54 nM

Cc1cc(-c2nnc(NCC3COC3)o2)nc2c(C(C)(C)C)cc(OCC(F)(F)F)cc12 [Compound 485]
EC50 [1]: 1050 nM

Cc1cc(-c2nnc(N[C@H]3C[C@@](O)(CO)C3)o2)nc2c(C(C)(C)C)cc(C3CC3)cc12 [Compound 514]
EC50 [1]: 11.2 nM

Cc1cc(-c2nnc(NCC3(C)COC3)o2)nc2c(C(C)(C)C)cc(OCC(F)(F)F)cc12 [Compound 486]
EC50 [1]: 1850 nM

COCCCNc1nnc(-c2cc(C)c3cc(OC)cc(C(F)(F)F)c3n2)o1 [Compound 274]
inhibition at 10 µM (Huh-7 cells, 3 days): 99.4%

CC(C)(C)c1cc(C2CC2)cc2c(N)cc(C(=O)NCc3ccccn3)nc12 [Compound 230]
inhibition at 10 µM (Huh-7 cells, 3 days): 100%

O=C(NCc1ccccn1)c1cc(Cl)c2cc(C3CC3)cc(OC(F)(F)F)c2n1 [Compound 233]
inhibition at 10 µM (Huh-7 cells, 3 days): 100%

Cc1cc(-c2nnc(N[C@H]3C[C@H](O)C3)o2)nc2c(C(C)(C)C)cc(C3CC3)cc12 [Compound 422]
EC50 [1]: 5.55 nM

CC(C)(O)CCNc1nnc(-c2cc(N)c3cc(C4CC4)cc(C(C)(C)C)c3n2)s1 [Compound 383]
EC50 [1]: 4.85 nM

CC(C)(C)c1cc(C2CC2)cc2c(Cl)cc(-c3nnc(Nc4ccccc4)o3)nc12 [Compound 349]
EC50 [1]: 26.9 nM

O=C(NCc1ccccn1)c1cc(C2CC2)c2cc(C3CC3)cc(C(F)(F)F)c2n1 [Compound 214]
inhibition at 10 µM (Huh-7 cells, 3 days): 92.6%

CO[C@H]1CN[C@H](CNC(=O)c2cc(C)c3cc(C4CC4)cc(C(C)(C)C)c3n2)C1 [Compound 425]
EC50 [1]: 12.4 nM

Cc1cc(-c2nnc(NCc3ccccn3)o2)nc2c(C(F)(F)F)cc(C3CC3)cc12 [Compound 254]
inhibition at 10 µM (Huh-7 cells, 3 days): 99.7%

Cc1cc(C(=O)NCc2cc(C(F)(F)F)ccn2)nc2c(C(F)(F)F)cc(C3CC3)cc12 [Compound 86]
inhibition at 10 µM (Huh-7 cells, 3 days): 100%

Cc1cc(-c2nnc(NCC3OCCO3)o2)nc2c(C(F)(F)F)cc(OCC(F)(F)F)cc12 [Compound 280]
inhibition at 10 µM (Huh-7 cells, 3 days): 99.9%

Cc1cc(C(=O)NCC(O)c2ccccc2)nc2c(C(F)(F)F)cc(-c3ccccc3)cc12 (stereo not drawn) [Compound 168]
inhibition at 10 µM (Huh-7 cells, 3 days): 86.4%

CC(C)(O)CCNc1nnc(-c2cc(N)c3cc(C4CC4)cc(C(F)(F)F)c3n2)s1 [Compound 374]
EC50 [1]: 62 nM

CC(=O)c1cc(C(F)(F)F)c2nc(C(=O)NCc3ccccn3)cc(C)c2c1 [Compound 160]
inhibition at 10 µM (Huh-7 cells, 3 days): 93.5%

Cc1cc(C(=O)NCCNc2ccccn2)nc2c(C(F)(F)F)cc(C3CC3)cc12 [Compound 129]
inhibition at 10 µM (Huh-7 cells, 3 days): 94.9%

Cc1cc(C(=O)NCC2COCC(C)(C)N2)nc2c(C(F)(F)F)cc(C3CC3)cc12 (stereo not drawn) [Compound 133]
inhibition at 10 µM (Huh-7 cells, 3 days): 92.4%

Cc1cc(-c2nnc(NCC3OCCO3)o2)nc2c(C(C)(C)C)cc(OCC3OCCO3)cc12 [Compound 533]
EC50 [1]: 306 nM
